Measured values from ChEMBL document CHEMBL1141977 (Bioorg Med Chem Lett, 2005).

How the values were obtained:
[1] = target: Sodium-dependent serotonin transporter (Rattus norvegicus, UniProt P31652); test: Binding affinity determined against Serotonin transporter determined by displacement of [3H]paroxetine from rat cortical membranes; assay type: cell membranes, Membrane
[2] = target: T1, 5-hydroxytryptamine receptor 1A (Homo sapiens) (UniProt P08908); test: Intrinsic activity towards 5-HT1A receptor using [35S]GTP-gamma-S, binding assay; assay type: functional
T1 sequence (whole entry): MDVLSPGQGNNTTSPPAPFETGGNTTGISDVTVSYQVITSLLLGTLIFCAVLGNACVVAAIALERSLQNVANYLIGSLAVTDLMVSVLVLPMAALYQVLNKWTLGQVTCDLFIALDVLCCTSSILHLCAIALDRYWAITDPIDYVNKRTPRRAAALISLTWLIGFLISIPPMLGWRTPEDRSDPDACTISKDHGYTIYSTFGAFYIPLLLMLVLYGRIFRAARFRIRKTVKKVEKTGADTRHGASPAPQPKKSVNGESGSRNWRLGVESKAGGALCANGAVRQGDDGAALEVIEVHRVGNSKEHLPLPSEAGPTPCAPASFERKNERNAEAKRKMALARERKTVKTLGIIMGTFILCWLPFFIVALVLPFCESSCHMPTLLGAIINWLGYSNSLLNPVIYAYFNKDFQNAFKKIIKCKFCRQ

[3] = target: T2, 5-hydroxytryptamine receptor 1A (Homo sapiens, UniProt P08908); test: Binding affinity determined against human 5-hydroxytryptamine 1A receptors transfected into CHO cells.; assay type: cell-based
T2 sequence (P08908 whole entry): T1 sequence (whole entry)

Sodium-dependent serotonin transporter, sequence (P31652 whole entry): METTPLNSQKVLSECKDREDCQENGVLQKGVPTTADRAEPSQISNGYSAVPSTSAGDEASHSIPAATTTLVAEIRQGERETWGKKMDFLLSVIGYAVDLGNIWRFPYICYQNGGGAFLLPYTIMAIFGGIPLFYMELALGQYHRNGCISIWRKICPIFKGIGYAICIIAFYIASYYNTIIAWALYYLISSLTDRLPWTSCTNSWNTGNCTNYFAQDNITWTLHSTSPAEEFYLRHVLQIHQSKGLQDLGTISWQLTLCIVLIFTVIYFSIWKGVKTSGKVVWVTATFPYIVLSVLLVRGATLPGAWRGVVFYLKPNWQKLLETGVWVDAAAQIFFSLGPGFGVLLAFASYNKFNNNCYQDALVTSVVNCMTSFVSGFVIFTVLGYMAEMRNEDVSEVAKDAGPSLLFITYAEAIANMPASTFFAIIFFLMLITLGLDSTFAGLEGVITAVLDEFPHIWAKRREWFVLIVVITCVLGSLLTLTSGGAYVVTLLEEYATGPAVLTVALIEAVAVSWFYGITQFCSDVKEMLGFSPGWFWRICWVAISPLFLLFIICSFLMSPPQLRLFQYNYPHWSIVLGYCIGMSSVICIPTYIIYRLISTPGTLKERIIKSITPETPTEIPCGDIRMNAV

Row | Structure (SMILES) | Ki [1] [nM] | Emax [2] [%] | Ki [3] [nM]
1 | Fc1ccc2[nH]cc([C@H]3CC[C@H](NCCOc4cccc5c4OCCO5)CC3)c2c1 | 1.05 | 43 | 
2 | Fc1ccc2[nH]cc([C@H]3CC[C@H](NCCOc4cccc5[nH]ccc45)CC3)c2c1 | 1.73 | 59 | 
3 | Fc1ccc2[nH]cc([C@H]3CC[C@H](N4CCN(c5cccc6[nH]ccc56)CC4)CC3)c2c1 |  | 43 | 
4 | COc1ccccc1OCCN[C@H]1CC[C@H](c2c[nH]c3ccc(F)cc32)CC1 |  | 80 | 22.4
5 | Fc1ccc2[nH]cc([C@H]3CC[C@H](NCC4COc5ccccc5O4)CC3)c2c1 (stereo not given in full) | 14.1 | 94 | 194
6 | COc1ccccc1N1CCN([C@H]2CC[C@@H](c3c[nH]c4ccc(F)cc43)CC2)CC1 | 3.3 | 5 | 129
7 | Fc1ccc2[nH]cc([C@H]3CC[C@H](N4CCN(c5cccc6c5OCCO6)CC4)CC3)c2c1 | 67.2 | 57 | 
8 | Fc1ccc2[nH]cc([C@H]3CC[C@@H](NCC4COc5ccccc5O4)CC3)c2c1 (stereo not given in full) | 23.2 | 44 | 332
9 | Fc1ccc2[nH]cc([C@H]3CC[C@@H](NCCOc4cccc5[nH]ccc45)CC3)c2c1 | 12.6 | 7 | 
10 | Fc1ccc2[nH]cc([C@H]3CC[C@@H](N4CCN(c5cccc6c5OCCO6)CC4)CC3)c2c1 | 5.31 | 0 | 
11 | COc1ccccc1N1CCN([C@H]2CC[C@H](c3c[nH]c4ccc(F)cc43)CC2)CC1 | 46.1 | 29 | 14.3
12 | COc1ccccc1OCCN[C@H]1CC[C@@H](c2c[nH]c3ccc(F)cc32)CC1 |  | 22 | 307
13 | Fc1ccc2[nH]cc([C@H]3CC[C@@H](NCCOc4cccc5c4OCCO5)CC3)c2c1 | 12.1 | 27 | 
14 | Fc1ccc2[nH]cc([C@H]3CC[C@@H](N4CCN(c5cccc6[nH]ccc56)CC4)CC3)c2c1 |  | 10 | 
